In patent publication US20140186869A1, “METHOD FOR INHIBITING PROTEASE IN BIOLOGICAL SAMPLE CONTAINING PANCREATIC JUICE COMPONENTS” (OLYMPUS CORPORATION, priority 2011, published 2014):
Like-named read-outs stand apart in the source and are kept apart here.

Key:
[1] = test system: protease present in pancreatic juice; assay: Protease activity (fluorescent-labeled casein, same manner as Example 1) in pancreatic juice specimens; assay type: biochemical; conditions: for concentration at which high levels of protease inhibitory effects against protease present in pancreatic juice are obtained: Example 7, pancreatin and two pancreatic juice specimens, various final concentrations, FIGS. 9-11
[2] = test system: protease present in pancreatic juice; assay: as above; assay type: biochemical; conditions: pancreatin and two pancreatic juice specimens, 1 mM PMSF, 4 mM AEBSF; for protease inhibitory effects against protease present in pancreatic juice: Example 4, 5 mM p-APMSF, 100 μl TLCK, 100 μM TPCK, FIG. 5; for protease inhibitory effect (fluorescence = degraded amount of casein): Example 3, 0.3 μM aprotinin, 50 μM leupeptin, FIG. 4
Procedure: After adding each protease inhibitor cocktail so that the final concentration thereof was equal to manufacturer's recommended concentration (1×) or a concentration equal to 5 times the recommended concentration (5×), protease activity was measured using a simulated artificial pancreatic juice in the form of “pancreatin”, a digestive enzyme produced from porcine pancreas in which pancreatic enzymes are present in an activated state. Protease activity was measured using EnzCheck Protease Assay Kits (Molecular Probes). […] In addition, a sample solution in which fluorescent-labeled casein was added directly to pancreatin (inhibitor (−), DMSO (−)), a sample solution in which DMSO was added to pancreatin so that the added amount of DMSO was the same as in the case of adding each protease inhibitor cocktail at the manufacturer's recommended concentration (1×) (inhibitor (−), DMSO 1×), and a sample solution in which DMSO was added to pancreatin so that the added amount of DMSO was the same as in the case of adding each protease inhibitor cocktail at a concentration equal to five times the manufacturer's recommended concentration (5×) (inhibitor (−), DMSO 5×) were prepared for use as controls, and these sample solutions were measured for protease activity in the same manner as the protease inhibitor cocktails.
There are four types of serine protease inhibitors contained in Protease Inhibitor Mix (GE) consisting of aprotinin, leupeptin, PMSF and AEBSF (concentrations are not disclosed). Therefore, protease activity was measured in the same manner as Example 1 using pancreatin and two types of pancreatic juice specimens for 15 combinations of the four types of inhibitors prepared so that the final concentration was equal to the maximum recommended concentration for each protease inhibitor alone. Furthermore, the maximum recommended concentrations consisted of 0.3 μM for aprotinin (Roche), 50 μM for leupeptin (Roche), 1 mM for PMSF (Roche) and 4 mM for AEBSF (Roche). In addition, protease activity was also measured in the same manner for a sample solution to which protease inhibitor was not added (Control Sample Solution 1), a sample solution containing the recommended concentration of Inhibitor Cocktail 1 (Complete, Roche) (Control Sample Solution 2), a sample solution containing Inhibitor Cocktail 1 at 5 times the recommended concentration (5×) (Control Sample Solution 3), a sample solution containing the recommended concentration of Inhibitor Cocktail 4 (Protease Inhibitor Mix, GE) (Control Sample Solution 4), and a sample solution containing Inhibitor Cocktail 4 at five times the recommended concentration (5×) (Control Sample Solution 5).
More specifically, a sample solution obtained by adding 1 mM PMSF and 4 mM AEBSF, a sample solution obtained by adding 1 mM PMSF, a sample solution obtained by adding 4 mM AEBSF, a sample solution obtained by adding 5 mM p-APMSF, a sample solution obtained by adding […] TLCK and a sample solution obtained by adding 100 μM TPCK were prepared for use as protease inhibitors, and the protease activity of each sample solution was measured in the same manner as Example 1 using pancreatin and two types of pancreatic juice specimens. In addition, the protease activities of a sample solution to which protease inhibitor was not added (inhibitor (−)), a sample solution containing Inhibitor Cocktail 1 at the recommended concentration (Complete, Roche), a sample solution containing Inhibitor Cocktail 1 at 5 times the recommended concentration (5×), a sample solution containing Inhibitor Cocktail 4 at the recommended concentration (Protease Inhibitor Mix, GE), and a sample solution containing Inhibitor Cocktail 4 at five times the recommended concentration (5×) were also measured in the same manner.

[3] = test system: protease in duodenal juice specimens; assay: Protease activity (fluorescent-labeled casein) in duodenal juice specimens; assay type: biochemical; conditions: Example 9; four duodenal juice specimens; 1 mM PMSF + 4 mM AEBSF plus 0.3 mM Aprotinin or 1 mM TLCK; FIG. 14
Procedure: After adding each protease inhibitor cocktail so that the final concentration thereof was equal to manufacturer's recommended concentration (1×) or a concentration equal to 5 times the recommended concentration (5×), protease activity was measured using a simulated artificial pancreatic juice in the form of “pancreatin”, a digestive enzyme produced from porcine pancreas in which pancreatic enzymes are present in an activated state. Protease activity was measured using EnzCheck Protease Assay Kits (Molecular Probes). More specifically, fluorescent-labeled casein provided with the kits was added to a pancreatin solution to which each protease inhibitor cocktail had been added, and after incubating for 2 hours at 37° C., fluorescence was measured at a fluorescence wavelength of Ex/Em=485/535 nm. […]
More specifically, a sample solution obtained by adding 1 mM PMSF and 4 mM AEBSF, a sample solution obtained by adding 1 mM PMSF, 4 mM AEBSF and 0.3 mM Aprotinin, and a sample solution obtained by adding 1 mM PMSF, 4 mM AEBSF and 1 mM TLCK were prepared as protease inhibitors, and the protease activity of each sample solution was measured in the same manner as Example 1 using four types of duodenal juice specimens. The protease activity of a sample solution to which protease inhibitor was not added (Inhibitor (−)) was also measured in the same manner as a control.

[4] = test system: pancreatin (simulated artificial pancreatic juice; pancreatic enzymes in an activated state); assay: Protease activity, EnzCheck Protease Assay Kits (fluorescent-labeled casein), in pancreatin solution; assay type: biochemical, porcine; conditions: Example 5; 0.0003 mM to 0.3 mM Aprotinin; FIGS. 6 and 7
Procedure: […] 5 times the recommended concentration (5×), protease activity was measured using a simulated artificial pancreatic juice in the form of “pancreatin”, a digestive enzyme produced from porcine pancreas in which pancreatic enzymes are present in an activated state. Protease activity was measured using EnzCheck Protease Assay Kits (Molecular Probes). More specifically, fluorescent-labeled casein provided with the kits was added to a pancreatin solution to which each protease inhibitor cocktail had been added, and after incubating for 2 hours at 37° C., fluorescence was measured at a fluorescence wavelength of Ex/Em=485/535 nm. […]
Fluorescence plotted on the vertical axis represents the degraded amount of casein, and that value was estimated to be the value of protease activity.

[5] = Example 5, pancreatic juice specimens, 10-50 μm Elastase Inhibitor I, 1-10 mM EDTA, 0.0003-0.3 mM Aprotinin, 0.005-5 mM Leupeptin, 0.01-1 mM TLCK or TPCK, FIGS. 6 and 7

NCCc1ccc(S(=O)(=O)F)cc1 [AEBSF, 4-(2-aminoethyl)-benzenesulfonyl fluoride]
concentration at which high levels of protease inhibitory effects against protease present in pancreatic juice are obtained [1]: ≥ 4 mM | protease inhibitory effects against protease present in pancreatic juice [2]: high levels of protease inhibitory effects

O=C(O)CN(CCN(CC(=O)O)CC(=O)O)CC(=O)O [EDTA]
inhibitory effects against protease present in pancreatic juice [1]: hardly any inhibitory effects

CC(=O)N[C@@H](CC(C)C)C(=O)N[C@@H](CC(C)C)C(=O)N[C@H](C=O)CCCNC(=N)N [Leupeptin]
inhibitory effects against protease present in pancreatic juice [1, 5]: hardly any inhibitory effects | protease inhibitory effect (fluorescence = degraded amount of casein) [2]: hardly any effect on protease activity

O=S(=O)(F)Cc1ccccc1 [PMSF, phenylmethylsulfonyl fluoride]
concentration at which high levels of protease inhibitory effects against protease present in pancreatic juice are obtained [1]: ≥ 1 mM | protease inhibitory effects against protease present in pancreatic juice [2]: high levels of protease inhibitory effects

Cc1ccc(S(=O)(=O)N[C@@H](CCCCN)C(=O)CCl)cc1 [TLCK, N-a-tosyl-L-lysine chloromethyl ketone]
additional inhibitory effects when added to PMSF and AEBSF, compared with PMSF and AEBSF only [3]: additional inhibitory effects were observed | inhibitory effects against protease present in pancreatic juice [1, 5]: hardly any inhibitory effects | protease inhibitory effects against protease present in pancreatic juice [2]: low levels of protease inhibitory effects

Cc1ccc(S(=O)(=O)N[C@@H](Cc2ccccc2)C(=O)CCl)cc1 [TPCK, N-a-tosyl-L-phenylalanine chloromethyl ketone]
inhibitory effects against protease present in pancreatic juice [1, 5]: slight protease inhibitory effects | protease inhibitory effects against protease present in pancreatic juice [2]: low levels of protease inhibitory effects

Aprotinin
additional inhibitory effects when added to PMSF and AEBSF, compared with PMSF and AEBSF only [3]: additional inhibitory effects were not observed | inhibitory effects against protease present in pancreatic juice [1, 5]: hardly any effects | protease inhibitory effects against pancreatin (simulated pancreatic juice) [4]: weak protease inhibitory effects | protease inhibitory effect (fluorescence = degraded amount of casein) [2]: hardly any effect on protease activity

p-amidinophenylmethane sulfonyl fluoride hydrochloride [p-APMSF]
concentration at which high levels of protease inhibitory effects against protease present in pancreatic juice are obtained [1]: ≥ 2 mM | protease inhibitory effects against protease present in pancreatic juice [2]: high levels of protease inhibitory effects
